US11786586B2, “Carbohydrate structures and uses thereof” (AOA Dx, priority 2016, dated 2023)

Columns and labels:
[1] = Water solubility; assay type: physicochemical
Text: Carbohydrates were synthesized as previously described (Gilbert, M., et al. J Biol Chem. 277(1):327-337, 2002; Chiu, C. P., et al. Nat Struc Mol Bio. 11(2)163-170, 2004; and Blixt, O., Carbohydrate Research. 340(12):1963-1972, 2005) by modification of the process for phenylthio-GD2 in which the phenylthio moiety was substituted with a p-aminophenylether in the starting p-aminophenyl-β-D-lactopyranoside (AP-Lac, from Toronto Research Chemicals), that was subsequently used to enzymatically synthesize the respective ganglioside carbohydrate for conjugation to the dendrimer (see below). AP-GD2 and AP-GD3 were water soluble (>20 mg/ml). The measured molecular weights of AP-GD2 (1218 g/mol) and AP-GD3 (927 g/mol) corresponded to expected values. Structures were verified by 1D and 2D NMR spectroscopy and mass spectrometry (EI-MS). The AP-GD2 and AP-GD3 intermediates were purified to >99% purity by size-exclusion chromatography (Superdex 30 16 mm×85 cm column, GE Health Care) before their application in the synthesis of the tetrameric vaccines.

[2] = system: EL4-GD2+ cells; assay: 3H-thymidine incorporation (proliferation) assay, EL4-GD2+ stimulator cells; assay type: cell-based, mouse; settings: 25 μg/mL Mitomycin for 1 h
Method: (§1) EL4-GD2+ cells and control Jurkat cells were treated with 25 μg/mL Mitomycin (Sigma) for 1 h to arrest proliferation. After the cells were washed three times with media to remove Mitomycin, they were plated in 96-well plates at 2×10^5 cells/well. Single cell suspensions of splenocytes were obtained from twice immunized (as above) and from vehicle-injected control mice. Cells were separated following the protocol of the EasySep Negative Selection Mouse T-cell Enrichment Kit (Stemcell Technologies). […] The T-cells were plated at a ratio of 10:1 with Mitomycin-treated EL4 or Jurkat cells. As controls, cultures of T-cells alone (no stimulating tumor cells) or T-cells treated with Concanavalin A were used. After 5 days of culture, 0.1 μCi/well 3H-thymidine (Sigma-Aldrich) was added. DNA-incorporated 3H-thymidine was counted by liquid scintillation, and data are reported as average cpm ±SD. […] After 7 days, in vitro, cell viability was assessed by staining with 0.1% Trypan Blue, and cells were counted using a hemocytometer. Bright field images were acquired using an Olympus CKX41 microscope, mounted with an Infinity 1 digital camera and Infinity Analyze software (Lumenera Corporation).

[3] = system: Jurkat cells; assay: 3H-thymidine incorporation (proliferation) assay, Jurkat stimulator cells; assay type: cell-based; settings: 25 μg/mL Mitomycin for 1 h
Method: as §1

[4] = system: T-cells; assay: 3H-thymidine incorporation of T-cells treated with Concanavalin A; assay type: cell-based, mouse; settings: ConA stimulation; mean±SD
Method: as §1

p-amino phenyl ether-GD3 [AP-GD3]
water solubility (in words) [1]: water-soluble

CO[C@@]12[C@H](COC(N)=O)C3=C(C(=O)C(C)=C(N)C3=O)N1C[C@@H]1N[C@@H]12 [Mitomycin]
3H-thymidine incorporation of mitomycin-treated EL4-GD2+ cells [2]: 188±4 cpm | 3H-thymidine incorporation of mitomycin-treated Jurkat cells [3]: 107±5 cpm

Concanavalin A [ConA]
3H-thymidine incorporation, T-cells from Tetra-GD2 vaccinated mice [4]: 19,834±309 cpm | 3H-thymidine incorporation, T-cells from naive mice [4]: 21,457±504 cpm

p-amino phenyl ether-GD2 [AP-GD2]
water solubility (in words) [1]: water-soluble
